Data taken from patent US4617189A, “Use of selenium-containing compounds for negating the toxic effects of platinum compounds used in chemotherapy, and a novel selenium-containing platinum compound and use thereof as an anti-cancer medicine” (priority 1985, dated 1986).

Assays:
[1] = system: Cisplatin induced nephrotoxicity; assay: Platinum toxicity negating effect: blood urea nitrogen (BUN) determination in BDF1 mice given Cisplatin; assay type: in vivo, mouse (male BDF1); settings: for BUN (≥30) on the fourth day / BUN (≥30) on the eleventh day: mice with BUN ≥30 / mice
Description: BUN of the mice which have been administered a platinum complex increases due to the platinum poisoning in the kidney. […] The method of negating platinum toxicity of the present invention will be illustrated in more detail by way of Examples later.
Sodium selenite was administered to the peritoneal cavities of the mice at a dosage of 6.3 mg/kg. […] BUN of the mice was determined on the fourth day from the date of the administration. […] BUN of these control groups was also determined.
BUN of the mice was dertermined on the fourth day from the date of administration and on the eleventh day from the date of the administration. […] BUN of these control groups was also determined.
Our studies were carried out in BDF1 male mice weighing approximately 25 grams. All solutions were freshly were daily and given by the intraperitoneal route.
The BUN values were determined on the fourth day after the administration of cisplatinol.

[2] = system: cadmium induced testicular damage; settings: Kar and co-workers, 1969; cited from earlier work
[3] = system: nephrotoxic effects of Cisplatin; settings: 750 mg/kg intraperitoneally or 100 mg/kg intravenously; cited from earlier work
[4] = Table 3, sodium selenite 1 mg/kg 2 hours before Cisplatin 14 mg/kg
[5] = Table 3, sodium selenite 2 mg/kg 2 hours before Cisplatin 14 mg/kg
[6] = Table 3, sodium selenite 4 mg/kg 2 hours before Cisplatin 14 mg/kg
[7] = Table 3, sodium selenite 6 mg/kg 2 hours before Cisplatin 14 mg/kg
[8] = Table 3, sodium selenite 8 mg/kg 2 hours before Cisplatin 14 mg/kg

O=[Se](O)O [Sodium selenite]
number of dead mice ([1]; Table 1, fourth day, sodium selenite 6.3 mg/kg 2 hours before Cisplatin 14 mg/kg): 2
BUN (≥30) on the fourth day ([1]; Table 1, sodium selenite 6.3 mg/kg 1 hour after Cisplatin 14 mg/kg): 5/5
BUN (≥30) on the fourth day ([1]; Table 1, sodium selenite 6.3 mg/kg 2 hours before Cisplatin 14 mg/kg): 1/3
BUN (≥30) on the fourth day ([1]; Table 1, sodium selenite 6.3 mg/kg 4 hours before Cisplatin 14 mg/kg): 4/5
BUN (≥30) on the fourth day ([1]; Table 1, sodium selenite 6.3 mg/kg i.p. alone, no Cisplatin): 0/5
BUN (≥30) on the fourth day ([1]; Table 1, sodium selenite 6.3 mg/kg simultaneously with Cisplatin 14 mg/kg): 2/5
number of dead mice ([1]; Table 2, fourth day, sodium selenite 6.3 mg/kg 3 hours before Cisplatin 14 mg/kg): 1
number of dead mice ([1]; Table 2, fourth day, sodium selenite 6.3 mg/kg 4 hours before Cisplatin 14 mg/kg): 1
number of dead mice ([1]; Table 2, fourth day, sodium selenite 6.3 mg/kg 6 hours before Cisplatin 14 mg/kg): 1
number of dead mice ([1]; Table 2, fourth day, sodium selenite 6.3 mg/kg simultaneously with Cisplatin 14 mg/kg): 1
BUN (≥30) on the fourth day ([1]; Table 2, sodium selenite 6.3 mg/kg 1 hour before Cisplatin 14 mg/kg): 3/5
BUN (≥30) on the fourth day ([1]; Table 2, sodium selenite 6.3 mg/kg 2 hours before Cisplatin 14 mg/kg): 1/5
BUN (≥30) on the fourth day ([1]; Table 2, sodium selenite 6.3 mg/kg 3 hours before Cisplatin 14 mg/kg): 1/4
BUN (≥30) on the fourth day ([1]; Table 2, sodium selenite 6.3 mg/kg 4 hours before Cisplatin 14 mg/kg): 2/4
BUN (≥30) on the fourth day ([1]; Table 2, sodium selenite 6.3 mg/kg 6 hours before Cisplatin 14 mg/kg): 2/4
BUN (≥30) on the fourth day ([1]; Table 2, sodium selenite 6.3 mg/kg simultaneously with Cisplatin 14 mg/kg): 2/4
number of dead mice ([1]; Table 3, eleventh day, sodium selenite 2 mg/kg 2 hours before Cisplatin 14 mg/kg): 1
number of dead mice ([1]; Table 3, eleventh day, sodium selenite 4 mg/kg 2 hours before Cisplatin 14 mg/kg): 2
number of dead mice ([1]; Table 3, eleventh day, sodium selenite 6 mg/kg 2 hours before Cisplatin 14 mg/kg): 1
number of dead mice ([1]; Table 3, eleventh day, sodium selenite 8 mg/kg 2 hours before Cisplatin 14 mg/kg): 1
number of dead mice ([1]; Table 3, fourth day, sodium selenite 4 mg/kg 2 hours before Cisplatin 14 mg/kg): 1
number of dead mice ([1]; Table 3, fourth day, sodium selenite 8 mg/kg 2 hours before Cisplatin 14 mg/kg): 1
BUN (≥30) on the eleventh day [1, 4]: 1/5
BUN (≥30) on the fourth day [1, 4]: 3/5
BUN (≥30) on the eleventh day [1, 5]: 0/4
BUN (≥30) on the fourth day [1, 5]: 1/5
BUN (≥30) on the eleventh day [1, 6]: 0/3
BUN (≥30) on the fourth day [1, 6]: 1/4
BUN (≥30) on the eleventh day [1, 7]: 0/4
BUN (≥30) on the fourth day [1, 7]: 1/5
BUN (≥30) on the eleventh day [1, 8]: 0/4
BUN (≥30) on the fourth day [1, 8]: 1/4

[Se] [selenium]
cadmium induced testicular damage [2]: prevents

CCN(CC)C(=S)[S-].[Na+] [sodium diethyldithiocarbamate]
nephrotoxic effects of Cisplatin in female rats [3]: effectively inhibited
